Source: paper PMC11595612, “Phytochemical Investigation and Biological Activities of Desmodium heterocarpon Extract as Anti-Tyrosinase: Isolation of Natural Compounds, In Vitro and In Silico Study” (Life, 2024)
Converted amounts (≈) assume the structure as drawn. Where two headings read alike, the source gives them in different places.

Legend:
[1] = test system: Candida albicans, Microsporum gypseum, Trichophyton rubrum, and T. mentagrophytes; assay: MIC/MFC by micro-dilution, summary over yeast and filamentous fungi (abstract); format: cell-based; details: C. albicans, M. gypseum
[2] = test system: Rhizopus stolonifer and Botrytis; parameters: method as in doi:10.1016/S0925-5214(96)00031-2; details: at a dosage of 5 mM; cited from earlier work
[3] = test system: B. aureus, L. monocytogenes, and E. coli; parameters: method as in doi:10.17221/132/2010-CJFS; details: cited from earlier work
[4] = test system: Staphylococcus aureus (ATTC 25923); assay: MIC/MBC by micro-dilution method
[5] = test system: Staphylococcus epidermidis (TISTR 517); assay: MIC/MBC by micro-dilution method; details: TISTR517
[6] = test system: Propionibacterium acnes (DMST 14916); assay: MIC/MBC by micro-dilution method; details: Cutibacterium acnes
[7] = test system: Escherichia coli ATCC35218; assay: MIC/MBC by micro-dilution method
[8] = test system: Pseudomonas aeruginosa ATCC10145; assay: MIC/MBC by micro-dilution method
[9] = test system: Candida albicans (TISTR 5779); assay: MIC/MFC by micro-dilution method; details: for MFC / MIC: Candida albicans, TISTR5779
Microsporum gypseum = assay: MIC/MFC by micro-dilution method; details: for MFC / MIC: Nannizzia gypsea
Trichophyton rubrum = assay: MIC/MFC by micro-dilution method; details: for MFC / MIC: Trichophyton rubrum
[10] = test system: Trichophyton mentagrophytes; assay: MIC/MFC by micro-dilution method; details: for MFC / MIC: Trichophyton mentagrophytes
[11] = test system: MRSA, S. epidermidis, Propionibacterium acnes, Escherichia coli, and Pseudomonas aeruginosa; assay: MIC/MBC by micro-dilution, summary over bacteria (abstract)
tyrosinase [12] = details: previous study, read-out: IC50, anti-tyrosinase activity, cited from earlier work
[13] = test system: P. aeruginosa, Klebsiella pneumoniae, E. coli, Salmonella typhimurium, and S. aureus; details: at a concentration of 315 ± 0.04 µg/mL; cited from earlier work
[14] = test system: A. fumigatus, A. flavus, A. niger, and tested Chrysosporium species; parameters: method as in earlier work; details: at 30 mg/mL; isolated from fruit extract of Flacourtia inermis Roxb; cited from earlier work
tyrosinase [15] = details: cited from earlier work

Structure (SMILES) | MBC ([4]; Staphylococcus aureus) | MIC ([4]; Staphylococcus aureus) | MBC [5] | MIC [5] | MBC [6] | MIC [6] | MBC [7] | MIC [7] | MBC [8] | MIC [8] | MFC [9] | MIC [9] | MFC (Microsporum gypseum) | MIC (Microsporum gypseum) | MFC (Trichophyton rubrum) | MIC (Trichophyton rubrum) | MFC [10] | MIC [10] | other results
O=C(O)c1cc(O)ccc1O [compound 6, 2,5-dihydroxybenzoic acid] | 5 µg/mL (≈ 32.4 µM) | 5 µg/mL (≈ 32.4 µM) | 15 µg/mL (≈ 97.3 µM) | 15 µg/mL (≈ 97.3 µM) | 40 µg/mL (≈ 260 µM) | 30 µg/mL (≈ 195 µM) | 35 µg/mL (≈ 227 µM) | 20 µg/mL (≈ 130 µM) | 35 µg/mL (≈ 227 µM) | 20 µg/mL (≈ 130 µM) | 15 µg/mL (≈ 97.3 µM) | 15 µg/mL (≈ 97.3 µM) | 15 µg/mL (≈ 97.3 µM) | 15 µg/mL (≈ 97.3 µM) | 15 µg/mL (≈ 97.3 µM) | 15 µg/mL (≈ 97.3 µM) | 15 µg/mL (≈ 97.3 µM) | 15 µg/mL (≈ 97.3 µM) | MFC [1]: 15 µg/mL (≈ 97.3 µM); MIC [1]: 15 µg/mL (≈ 97.3 µM); spore germination [2]: inhibited; MIC [3]: 2500 µM (≈ 385 µg/mL); MBC ([4]; S. aureus): 5 µg/mL (≈ 32.4 µM); MIC ([4]; S. aureus): 5 µg/mL (≈ 32.4 µM); MBC [11]: 15 to 40 µg/mL (≈ 97.3 to 260 µM); MIC [11]: 15 to 30 µg/mL (≈ 97.3 to 195 µM)
CCCCCCCCCCCCCCCC(=O)O [compound 2, hexadecanoic acid] | > 100 µg/mL | > 100 µg/mL | > 100 µg/mL | > 100 µg/mL | > 100 µg/mL | > 100 µg/mL | > 100 µg/mL | > 100 µg/mL | > 100 µg/mL | > 100 µg/mL | > 100 µg/mL | > 100 µg/mL | > 100 µg/mL | > 100 µg/mL | > 100 µg/mL | > 100 µg/mL | > 100 µg/mL | > 100 µg/mL | –
CC[C@H](CC[C@@H](C)[C@H]1CC[C@H]2[C@@H]3CC=C4C[C@@H](O[C@@H]5O[C@H](CO)[C@@H](O)[C@H](O)[C@H]5O)CC[C@]4(C)[C@H]3CC[C@]12C)C(C)C [compound 4, β-sitosterol-D-glucoside] | > 100 µg/mL | > 100 µg/mL | > 100 µg/mL | > 100 µg/mL | > 100 µg/mL | > 100 µg/mL | > 100 µg/mL | > 100 µg/mL | > 100 µg/mL | > 100 µg/mL | > 100 µg/mL | > 100 µg/mL | > 100 µg/mL | > 100 µg/mL | > 100 µg/mL | > 100 µg/mL | > 100 µg/mL | > 100 µg/mL | –
C[C@@H]1[C@H](O)[C@@H](C)/C=C/C=C/C=C/C=C/C=C/C=C/C=C/[C@H](O[C@@H]2O[C@H](C)[C@@H](O)[C@H](N)[C@@H]2O)C[C@@H]2O[C@](O)(C[C@@H](O)C[C@@H](O)[C@H](O)CC[C@@H](O)C[C@@H](O)CC(=O)O[C@H]1C)C[C@H](O)[C@H]2C(=O)O [amphotericin B, reference compound] | – | – | – | – | – | – | – | – | – | – | – | – | – | – | – | – | – | – | Antibiotic * (positive control value; MIC/MFC not specified) ([9]; C. albicans): 0.5
O=c1c(-c2ccc(O)cc2)coc2cc(O)cc(O)c12 [compound 1, genistein] | > 100 µg/mL | > 100 µg/mL | > 100 µg/mL | > 100 µg/mL | > 100 µg/mL | > 100 µg/mL | > 100 µg/mL | > 100 µg/mL | > 100 µg/mL | > 100 µg/mL | > 100 µg/mL | > 100 µg/mL | > 100 µg/mL | > 100 µg/mL | > 100 µg/mL | > 100 µg/mL | > 100 µg/mL | > 100 µg/mL | IC50 (tyrosinase [12]; ref 40): 363 µM; IC50 (tyrosinase [12]; ref 41): 822 µM
O=C(O)c1cccc(O)c1O [compound 5, 2,3-dihydroxybenzoic acid] | 15 µg/mL (≈ 97.3 µM) | 15 µg/mL (≈ 97.3 µM) | 15 µg/mL (≈ 97.3 µM) | 15 µg/mL (≈ 97.3 µM) | 20 µg/mL (≈ 130 µM) | 15 µg/mL (≈ 97.3 µM) | 15 µg/mL (≈ 97.3 µM) | 15 µg/mL (≈ 97.3 µM) | 20 µg/mL (≈ 130 µM) | 15 µg/mL (≈ 97.3 µM) | 15 µg/mL (≈ 97.3 µM) | 10 µg/mL (≈ 64.9 µM) | 10 µg/mL (≈ 64.9 µM) | 10 µg/mL (≈ 64.9 µM) | 10 µg/mL (≈ 64.9 µM) | 10 µg/mL (≈ 64.9 µM) | 10 µg/mL (≈ 64.9 µM) | 10 µg/mL (≈ 64.9 µM) | growth of bacteria [13]: inhibited the growth; antifungal action [14]: preventing the growth
O=C(O)c1ccccc1O [compound 3, salicylic acid] | – | – | – | – | – | – | – | – | – | – | – | – | – | – | – | – | – | – | type of inhibition (Lineweaver–Burk plots) (tyrosinase [15]): non-competitive inhibitor
CC(=O)N1CCN(c2ccc(OCC3COC(Cn4ccnc4)(c4ccc(Cl)cc4Cl)O3)cc2)CC1 (centres unmarked) [ketoconazole, reference compound] | – | – | – | – | – | – | – | – | – | – | – | – | – | – | – | – | – | – | Antibiotic * (positive control value; MIC/MFC not specified) (Microsporum gypseum; M. gypseum): 0.25; Antibiotic * (positive control value; MIC/MFC not specified) (Trichophyton rubrum; T. rubrum): 0.25; Antibiotic * (positive control value; MIC/MFC not specified) ([10]; T. mentagrophytes): 0.25
